According to publication PMC11988817, “Prediction and Prioritisation of Novel Anthelmintic Candidates from Public Databases Using Deep Learning and Available Bioactivity Data Sets” (International Journal of Molecular Sciences, 2025):
Read-outs that look alike come from different tables or passages of the source.

Assays:
Haemonchus contortus = conditions: cited from earlier work
[1] = tested on: exsheathed third-stage larvae (xL3s) of H. contortus; assay: xL3 larval motility dose-response assay; set-up: species or system Haemonchus contortus; conditions: for inhibition at 50 µM / inhibition at up to 50 µM: read-out: Larval motility maximal inhibition (MI; MMI) (converted); for IC50: read-out: Larval Motility IC50; for inhibition at 50 µM / inhibition at up to 50 µM / Larval motility maximal inhibition (MI; MMI): at 50 µM; for inhibition of xL3 motility (in words): dose-response up to 50 µM
Description: (§1) The prioritised compounds were purchased from MolPort and evaluated for their activity by estimating their IC50 values and MMIs against xL3s of H. contortus (Haecon-5 strain) using an established method. In brief, xL3s were dispensed in 96-well plates (cat. no. 3596; Corning, Corning, NY, USA) at a density of 300 xL3s per well with individual, serially diluted compounds (9-points; 2-fold serial dilution; 50 µM to […]), in a final volume of 100 µL of LB* (= sterile lysogenic broth [LB] supplemented with 100 IU/mL penicillin, 100 µg/mL streptomycin and 0.25 µg/mL amphotericin B [Fungizone®, Thermo Fisher Scientific, Waltham, MA, USA]). Plates containing xL3s were incubated at 38 °C, 10% (v/v) CO2 and >90% relative humidity. Following 168 h of incubation, the compounds were tested by three independent experiments in triplicate. The xL3s motility and development to fourth-stage larvae (L4s) were measured with reference to two commercial anthelmintics, monepantel (Zolvix^TM; Elanco, Greenfield, IN, USA) and moxidectin (Cydectin®; Virbac, Carros, France). Negative control wells containing 0.25% (v/v) DMSO were present on all plates. […] Compound concentrations were log10-transformed and fitted using a variable slope four-parameter equation, constraining the highest value to 100% and employing a least squares (ordinary) fit model as implemented in GraphPad Prism software (v.10.0.1). A one-way analysis of variance (ANOVA) with a Dunnett’s multiple comparison test was used to establish statistically significant differences in larval motility and in development.

[2] = tested on: exsheathed third-stage larvae (xL3s) of H. contortus; assay: xL3 larval development (to L4) assay; set-up: species or system Haemonchus contortus; conditions: for IC50: Haemonchus contortus, read-out: Larval Development IC50
Description: as §1

[3] = tested on: exsheathed third-stage larvae (xL3s) of H. contortus; assay: abnormal larval phenotype / worm morphology assessment; set-up: species or system Haemonchus contortus; key to Abnormal Phenotype: curved (Cur); evisceration (Evi); coiled (Coi); conditions: 168 h; for Abnormal Phenotype: exhibited at 50 µM
Description: as §1

[4] = HepG2 cytotoxicity (CellTiter-Glo); format: cell-based; conditions: human
Description: The cytotoxicity of the prioritised compounds 3, 4 and 6 on human hepatoma (HepG2) cells was evaluated as described previously. In brief, HepG2 cells were first cultured (in an incubator at 5% (v/v) CO2, 37 °C and >90% humidity) in Dulbecco’s modified Eagle’s medium (DMEM), supplemented with 5% (v/v) foetal bovine serum (FBS). The test compounds were serially diluted (10-points; 2-fold serial dilution; top concentration of 50 μM) in DMEM plus 10% (v/v) FBS, adjusted to a DMSO concentration of 0.5% (v/v) and arrayed across a 384-well plate. Bortezomib (10 μM) was used as a positive control, and 0.5% DMSO was used as a negative control. HepG2 cells (1 × 10^3 cells per 50 μL of DMEM plus 10% FBS) were then seeded into wells of the assay plate; the plates were then incubated in 5% (v/v) CO2, 37 °C and >90% humidity for 48 h. Subsequently, cell proliferation was assessed using CellTiter-Glo (Promega, Fitchburg, WI, USA) and normalised against the negative controls and expressed as a percentage. All compounds were tested in duplicate. The half-maximal cytotoxic (CC50) values were calculated using the software Dotmatics (v.5.3) and Spotfire (v.7.11.1) employing a non-linear regression four-parameter fit analysis.

[5] = tested on: adult females of H. contortus; assay: adult female motility time-course assay; set-up: species or system Haemonchus contortus; conditions: 50 µM
Description: (§2) Subsequently, the selected compounds evaluated for in vitro activity against larvae were further assessed for their activity against adult females and males of H. contortus using an established motility assay. In brief, the compound was dispensed in 24-well plates (cat. no. 3524; Corning) at a concentration of 50 μM in 500 μL of RPMI* (RPMI 1640 medium supplemented with 4 mM L-glutamine, 100 U/mL penicillin, 100 µg/mL streptomycin and 0.25 µg/mL amphotericin B). Two positive controls, monepantel and moxidectin, were each prepared in the same manner, and a negative control containing 0.25% (v/v) DMSO was included on all plates. Three adult females or males were added to each of the wells containing either the test compound or a control compound and then incubated at 38 °C, 10% (v/v) CO2 and >90% relative humidity for 24 h. The compounds were tested in triplicate. A video recording (30 sec) of each well was taken at 0 h, 3 h, 6 h, 12 h and 24 h during the entire incubation period to assess the reduction in worm motility—scored as 3 (‘good’), 2 (‘low’), 1 (‘very low’) or 0 (‘none’). For each test or control compound, the motility scores for each of the triplicate wells were calculated, normalised with reference to the negative control (100% motility), and recorded as a percentage. A two-way ANOVA with Dunnett’s multiple comparison test was used to establish statistically significant differences against the DMSO control in worm motility for each time point.

[6] = tested on: adult males of H. contortus; assay: adult male motility time-course assay; set-up: species or system Haemonchus contortus; conditions: 50 µM
Description: as §2

[7] = Haemonchus contortus, 168 h, xL3s, 168 h
[8] = Haemonchus contortus, 168 h, xL3s, 168 h of exposure, three independent assays in triplicate

Structure (SMILES)	inhibition at 50 µM [1, 7]	IC50 [1, 8]	IC50 ([2]; xL3s, 168 h of exposure)	Abnormal Phenotype [3]	also measured
COc1ccc(-c2cnc3c(n2)CCCC3)cc1C#N [APDB C798]	–	–	–	–	antiparasitic activity (in words) (Haemonchus contortus; tetrahydroquinoxalines): antiparasitic activity was observed
CC(C)Oc1cccc(-c2cnc3c(n2)CCCC3)c1 [APDB C802]	–	–	–	–	antiparasitic activity (in words) (Haemonchus contortus; tetrahydroquinoxalines): antiparasitic activity was observed
CC(C#N)(COc1cc(C#N)ccc1C(F)(F)F)NC(=O)c1ccc(OC(F)(F)F)cc1 (stereo not shown) [APDB C823]	–	–	–	–	antiparasitic activity (in words) (Haemonchus contortus): possess antiparasitic activity
COC(=O)c1ccc(-c2cc(C#N)ccn2)cc1 [Compound 1, Methyl 4-(4-cyanopyridin-2-yl)benzoate]	50%	6.2 ± 0.3 µM	> 50 µM	curved (Cur) and Evi	inhibition of larval development (in words) ([2]; 168 h): not inhibited; Larvae with abnormal phenotype (exhibited at 50 µM) [3]: 20%
N=C(N)c1ccc(N2CCOCC2)cc1 [Compound 2, 4-(Morpholin-4-yl)benzene-1-carboximidamide]	–	1.8 ± 1.4 µM	> 50 µM	nil	inhibition at up to 50 µM [1, 7]: 53%
COc1ccc(-c2cncc(C#N)n2)cc1OC [Compound 3, 6-(3,4-Dimethoxyphenyl)pyrazine-2-carbonitrile]	54%	7.9 ± 1.9 µM	37.1 µM	Evi	inhibition of xL3 motility (in words) ([1]; 168 h): inhibition of H. contortus motility was only observed; Larval development maximal inhibition (MI) ([2]; xL3s, 168 h of exposure): 100%; Larvae with abnormal phenotype (exhibited at 50 µM) [3]: 80%; altered worm morphology / abnormal phenotype (in words) [3]: induced an abnormal phenotype; CC50 at 48 h ([4]; HepG2 cells (human hepatoma)): > 40 µM
c1ccc(-c2cnc3ccccc3n2)cc1 [Compound 4, 2-Phenylquinoxaline]	–	–	–	nil	IC50 ([1]; Haemonchus contortus, 168 h): 5.8 ± 4.1 µM; IC50 ([2]; 168 h): > 50 µM; motility reduction, adult females, 24 h [5]: 40%; motility reduction, adult males, 24 h [6]: 50%; CC50 at 48 h ([4]; HepG2 cells): > 40 µM
O=C(CCC(F)(F)F)NCCc1cnccn1 [Compound 5, 4,4,4-Trifluoro-N-[2-(pyrazin-2-yl)ethyl]butanamide]	65%	37.5 ± 2.5 µM	> 50 µM	nil	–
N#Cc1ccc(OCc2cccc(F)c2)cc1 [Compound 6, 4-[(3-Fluorophenyl)methoxy]benzonitrile]	100%	7.4 ± 9.4 µM	23.6 µM	Evi	inhibition of xL3 motility (in words) ([1]; 168 h): inhibition of H. contortus motility was only observed; Larvae with abnormal phenotype (exhibited at 50 µM) [3]: 100%; motility reduction, adult females, 6 h [5]: 33%; motility reduction, adult females, 12 h [5]: 50%; motility reduction, adult females, 24 h [5]: 75%; effect on adult female motility (in words) ([5]; within 24 h): significant reduction in the motility; motility reduction, adult males, 6 h [6]: 50%; motility reduction, adult males, 12 h [6]: 75%; motility reduction, adult males, 24 h [6]: 100%; effect on adult male motility (in words) ([6]; within 24 h): complete immobilisation; CC50 at 48 h ([4]; HepG2 cells (human hepatoma)): > 40 µM
N#Cc1ccc(N2CCC(O)CC2)cc1 [Compound 7, 4-(4-Hydroxypiperidin-1-yl)benzonitrile]	70%	2.1 ± 3.5 µM	> 50 µM	nil	–
CC12CN3CN(C1)CC(c1ccccc1)(C3)C2=O [Compound 8, (1S,5R,7S)-5-Methyl-7-phenyl-1,3-diazatricyclo[3.3.1.1³,⁷]decan-6-one]	42%	0.8 ± 1.6 µM	> 50 µM	nil	–
N#Cc1ccc(NC(=O)COCC(=O)NCC(N)=O)cc1 [Compound 9, N-(Carbamoylmethyl)-2-{[(4-cyanophenyl)carbamoyl]methoxy}acetamide]	46%	4.1 µM	> 50 µM	nil	–
CC(C)(CO)NCC#Cc1ccccc1 [Compound 10, 2-Methyl-2-[(3-phenylprop-2-yn-1-yl)amino]propan-1-ol]	50%	0.8 ± 1.2 µM	> 50 µM	nil	motility reduction, adult females, 24 h [5]: 40%
C[C@](C#N)(COc1cc(C#N)ccc1C(F)(F)F)NC(=O)c1ccc(SC(F)(F)F)cc1 [Monepantel, N-[(2S)-2-cyano-1-[5-cyano-2-(trifluoromethyl)phenoxy]propan-2-yl]-4-(trifluoromethylsulfanyl)benzamide, reference compound]	–	0.2 ± 0.002 µM	0.4 µM	Coi	inhibition at up to 50 µM [1, 7]: 100%; Larvae with abnormal phenotype (exhibited at 50 µM) [3]: 100%; motility reduction, adult females, 6 h [5]: 67%; motility reduction, adult females, 12 h [5]: 67%; motility reduction, adult females, 24 h [5]: 67%; motility reduction, adult males, 6 h [6]: 67%; motility reduction, adult males, 12 h [6]: 67%; motility reduction, adult males, 24 h [6]: 100%
CO/N=C1\C[C@]2(C[C@@H]3C[C@@H](C/C=C(\C)C[C@@H](C)/C=C/C=C4\CO[C@@H]5[C@H](O)C(C)=C[C@@H](C(=O)O3)[C@]45O)O2)O[C@H](/C(C)=C/C(C)C)[C@H]1C [Moxidectin, (1R,4S,4'E,5'S,6R,6'S,8R,10E,13R,14E,16E,20R,21R,24S)-21,24-dihydroxy-4'-methoxyimino-5',11,13,22-tetramethyl-6'-[(E)-4-methylpent-2-en-2-yl]spiro[3,7,19-trioxatetracyclo[15.6.1.14,8.020,24]pentacosa-10,14,16,22-tetraene-6,2'-oxane]-2-one, reference compound]	–	0.5 µM	45 µM	nil	Larval motility maximal inhibition (MI; MMI) ([1]; xL3s, 168 h): 75%; Larval motility maximal inhibition (MI; MMI) ([1]; xL3s, 168 h, listed as moxidectin): 5%; IC50 ([1]; xL3s, 168 h of exposure, three independent assays in triplicate): 0.8 ± 0.4 µM; Larval development maximal inhibition (MI) ([2]; xL3s, 168 h of exposure): 100%
